Results published in PubChem BioAssay (NCI).
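Test compounds were applied to cells in 96-well plates for 48 hours at 5 doses. TGI: total growth inhibition.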

Legend:
Test in all cases: NCI anticancer screen, dose series, 48 h
786-0 renal = test system: 786-0 renal
A498 renal = test system: A498 renal
A549 NSCLC = test system: A549 NSCLC
ACHN renal = test system: ACHN renal
CAKI-1 renal = test system: CAKI-1 renal
COLO 205 colon = test system: COLO 205 colon
DLD-1 colon = test system: DLD-1 colon
DMS 114 small cell lung = test system: DMS 114 small cell lung
DMS 273 small cell lung = test system: DMS 273 small cell lung
EKVX NSCLC = test system: EKVX NSCLC
HCC-2998 colon = test system: HCC-2998 colon
HCT-116 colon = test system: HCT-116 colon
HCT-15 colon = test system: HCT-15 colon
HOP-18 NSCLC = test system: HOP-18 NSCLC
HOP-62 NSCLC = test system: HOP-62 NSCLC
HOP-92 NSCLC = test system: HOP-92 NSCLC
HT29 colon = test system: HT29 colon
IGROV1 ovarian = test system: IGROV1 ovarian
KM12 colon = test system: KM12 colon
KM20L2 colon = test system: KM20L2 colon
LOX IMVI melanoma = test system: LOX IMVI melanoma
M14 melanoma = test system: M14 melanoma
M19-MEL melanoma = test system: M19-MEL melanoma
MALME-3M melanoma = test system: MALME-3M melanoma
MOLT-4 leukemia = test system: MOLT-4 leukemia
NCI-H226 lung = test system: NCI-H226 lung
NCI-H23 lung = test system: NCI-H23 lung
NCI-H460 lung = test system: NCI-H460 lung
OVCAR-3 ovarian = test system: OVCAR-3 ovarian
OVCAR-4 ovarian = test system: OVCAR-4 ovarian
OVCAR-5 ovarian = test system: OVCAR-5 ovarian
OVCAR-8 ovarian = test system: OVCAR-8 ovarian
RPMI-8226 leukemia = test system: RPMI-8226 leukemia
RXF 393 renal = test system: RXF 393 renal
RXF-631 renal = test system: RXF-631 renal
SF-268 CNS = test system: SF-268 CNS
SF-295 CNS = test system: SF-295 CNS
SF-539 CNS = test system: SF-539 CNS
SK-MEL-28 melanoma = test system: SK-MEL-28 melanoma
SK-MEL-5 melanoma = test system: SK-MEL-5 melanoma
SK-OV-3 ovarian = test system: SK-OV-3 ovarian
SN12C renal = test system: SN12C renal
SNB-19 CNS = test system: SNB-19 CNS
SNB-75 CNS = test system: SNB-75 CNS
SNB-78 CNS = test system: SNB-78 CNS
SR leukemia = test system: SR leukemia
SW-620 colon = test system: SW-620 colon
TK-10 renal = test system: TK-10 renal
U251 CNS = test system: U251 CNS
UACC-257 melanoma = test system: UACC-257 melanoma
UACC-62 melanoma = test system: UACC-62 melanoma
UO-31 renal = test system: UO-31 renal
XF 498 CNS = test system: XF 498 CNS
CCRF-CEM leukemia = test system: CCRF-CEM leukemia
HL-60(TB) leukemia = test system: HL-60(TB) leukemia
K-562 leukemia = test system: K-562 leukemia
LXFL 529 NSCLC = test system: LXFL 529 NSCLC
NCI-H522 lung = test system: NCI-H522 lung
SK-MEL-2 melanoma = test system: SK-MEL-2 melanoma

Compound: Cc1ccc2nc(Sc3c([N+](=O)[O-])ncn3C)[nH]c2c1
- TGI (786-0 renal): > 100 µM
- TGI (A498 renal): 83.2 µM
- TGI (A549 NSCLC): > 100 µM
- TGI (ACHN renal): > 100 µM
- TGI (CAKI-1 renal): 27.5 µM
- TGI (COLO 205 colon): 27.8 µM
- TGI (DLD-1 colon): 49.8 µM
- TGI (DMS 114 small cell lung): 28.9 µM
- TGI (DMS 273 small cell lung): 40.1 µM
- TGI (EKVX NSCLC): 63.9 µM
- TGI (HCC-2998 colon): 30.6 µM
- TGI (HCT-116 colon): 53.9 µM
- TGI (HCT-15 colon): 32.4 µM
- TGI (HOP-18 NSCLC): > 100 µM
- TGI (HOP-62 NSCLC): > 100 µM
- TGI (HOP-92 NSCLC): 41.3 µM
- TGI (HT29 colon): > 100 µM
- TGI (IGROV1 ovarian): 65.6 µM
- TGI (KM12 colon): > 100 µM
- TGI (KM20L2 colon): > 100 µM
- TGI (LOX IMVI melanoma): > 100 µM
- TGI (M14 melanoma): 92.5 µM
- TGI (M19-MEL melanoma): 57.2 µM
- TGI (MALME-3M melanoma): 47.4 µM
- TGI (MOLT-4 leukemia): 31.1 µM
- TGI (NCI-H226 lung): 45 µM
- TGI (NCI-H23 lung): 50.5 µM
- TGI (NCI-H460 lung): > 100 µM
- TGI (OVCAR-3 ovarian): 56.7 µM
- TGI (OVCAR-4 ovarian): 79.2 µM
- TGI (OVCAR-5 ovarian): > 100 µM
- TGI (OVCAR-8 ovarian): 41 µM
- TGI (RPMI-8226 leukemia): 78.7 µM
- TGI (RXF 393 renal): 39.5 µM
- TGI (RXF-631 renal): 32.3 µM
- TGI (SF-268 CNS): 83.9 µM
- TGI (SF-295 CNS): > 100 µM
- TGI (SF-539 CNS): 36.4 µM
- TGI (SK-MEL-28 melanoma): > 100 µM
- TGI (SK-MEL-5 melanoma): 33.1 µM
- TGI (SK-OV-3 ovarian): > 100 µM
- TGI (SN12C renal): 35.8 µM
- TGI (SNB-19 CNS): > 100 µM
- TGI (SNB-75 CNS): 89.3 µM
- TGI (SNB-78 CNS): 76.3 µM
- TGI (SR leukemia): 42.2 µM
- TGI (SW-620 colon): > 100 µM
- TGI (TK-10 renal): > 100 µM
- TGI (U251 CNS): > 100 µM
- TGI (UACC-257 melanoma): 38.5 µM
- TGI (UACC-62 melanoma): 35.7 µM
- TGI (UO-31 renal): 88.4 µM
- TGI (XF 498 CNS): 18.9 µM

Compound: O=S1(=O)OCCOS(=O)(=O)C1(Cl)Cl
- TGI (786-0 renal): > 100 µM
- TGI (A498 renal): > 100 µM
- TGI (A549 NSCLC): > 100 µM
- TGI (CAKI-1 renal): > 100 µM
- TGI (CCRF-CEM leukemia): > 100 µM
- TGI (COLO 205 colon): > 100 µM
- TGI (DLD-1 colon): > 100 µM
- TGI (DMS 114 small cell lung): > 100 µM
- TGI (DMS 273 small cell lung): > 100 µM
- TGI (EKVX NSCLC): > 100 µM
- TGI (HCC-2998 colon): > 100 µM
- TGI (HCT-116 colon): > 100 µM
- TGI (HL-60(TB) leukemia): > 100 µM
- TGI (HOP-62 NSCLC): > 100 µM
- TGI (HOP-92 NSCLC): > 100 µM
- TGI (HT29 colon): > 100 µM
- TGI (IGROV1 ovarian): > 100 µM
- TGI (K-562 leukemia): > 100 µM
- TGI (KM12 colon): > 100 µM
- TGI (LOX IMVI melanoma): > 100 µM
- TGI (LXFL 529 NSCLC): > 100 µM
- TGI (M14 melanoma): > 100 µM
- TGI (M19-MEL melanoma): > 100 µM
- TGI (MALME-3M melanoma): > 100 µM
- TGI (MOLT-4 leukemia): > 100 µM
- TGI (NCI-H226 lung): > 100 µM
- TGI (NCI-H23 lung): > 100 µM
- TGI (NCI-H522 lung): > 100 µM
- TGI (OVCAR-3 ovarian): > 100 µM
- TGI (OVCAR-4 ovarian): > 100 µM
- TGI (OVCAR-8 ovarian): > 100 µM
- TGI (RPMI-8226 leukemia): > 100 µM
- TGI (RXF-631 renal): > 100 µM
- TGI (SF-268 CNS): > 100 µM
- TGI (SF-295 CNS): > 100 µM
- TGI (SF-539 CNS): > 100 µM
- TGI (SK-MEL-2 melanoma): > 100 µM
- TGI (SK-MEL-28 melanoma): > 100 µM
- TGI (SK-MEL-5 melanoma): > 100 µM
- TGI (SK-OV-3 ovarian): > 100 µM
- TGI (SN12C renal): > 100 µM
- TGI (SNB-19 CNS): > 100 µM
- TGI (SNB-75 CNS): > 100 µM
- TGI (SNB-78 CNS): > 100 µM
- TGI (SR leukemia): > 100 µM
- TGI (SW-620 colon): > 100 µM
- TGI (TK-10 renal): > 100 µM
- TGI (UACC-257 melanoma): > 100 µM
- TGI (UACC-62 melanoma): > 100 µM
- TGI (UO-31 renal): > 100 µM
- TGI (XF 498 CNS): > 100 µM
